Measured values from patent publication US20210255193A1, “LYSINE REACTIVE PROBES AND USES THEREOF” (The Scripps Research Institute, priority 2017, published 2021).

How the values were obtained:
Assay in all cases: competitive isoTOP-ABPP
[1] = target: T1, AGFG1 Arf-GAP domain and FG repeat-containing protein 1 (Homo sapiens, UniProt P52594); format: binding; set-up: key to isoTOP-ABPP reactivity ratio at lysine P52594_K134: R = MS1 peak area ratio, DMSO (heavy) / compound-treated (light); details: 50 uM, in vitro; for isoTOP-ABPP ratio (R) at liganded lysine P52594_K134: sol, 231
T1 construct: isoTOP-ABPP experiments performed in cell lysates (in vitro); endogenous in cells; host or cells: soluble proteome of human cancer cell lines (MDA-MB-231, Ramos, Jurkat)
T1 sequence (P52594 1-562): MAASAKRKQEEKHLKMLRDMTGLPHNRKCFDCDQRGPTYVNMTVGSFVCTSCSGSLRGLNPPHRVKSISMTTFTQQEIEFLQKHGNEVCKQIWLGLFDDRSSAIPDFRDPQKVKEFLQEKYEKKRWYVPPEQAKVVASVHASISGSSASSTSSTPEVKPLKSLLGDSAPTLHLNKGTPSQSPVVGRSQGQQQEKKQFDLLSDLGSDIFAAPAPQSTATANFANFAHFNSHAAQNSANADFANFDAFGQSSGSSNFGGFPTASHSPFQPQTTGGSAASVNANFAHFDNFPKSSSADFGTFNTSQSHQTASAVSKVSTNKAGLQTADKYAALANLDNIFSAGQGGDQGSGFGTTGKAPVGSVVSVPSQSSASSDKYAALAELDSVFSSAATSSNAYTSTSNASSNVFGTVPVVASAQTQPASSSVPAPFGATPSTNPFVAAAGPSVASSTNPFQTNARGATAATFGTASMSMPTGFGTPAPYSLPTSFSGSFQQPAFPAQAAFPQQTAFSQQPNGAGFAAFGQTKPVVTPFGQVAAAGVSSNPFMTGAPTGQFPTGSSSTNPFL
Description: (§1) In vitro covalent fragment treatment for isoTOP-ABPP. All compounds were made up as solutions in DMSO (100×) and were used at a final concentration of 50 μM for activated esters and 100 μM for guanidinylating agents. For each profiling sample, 0.5 ml of lysate was treated with 5 μl of the 100× compound stock solution or 5 μl of DMSO. Samples were treated with activated esters for
(§2) STP-alkyne labeling and click chemistry. For concentration-dependent reactivity measurements by isoTOP-ABPP, 0.5 ml proteome aliquots were treated at ambient temperature with 1 mM STP-alkyne 1 (5 μl of 100 mM stock in DMSO) and 0.1 mM STP alkyne 1 (5 μl of 10 mM stock in DMSO), respectively. For competitive isoTOP-ABPP, after in vitro fragment treatment (detailed above), the samples were labeled for 1 h at ambient temperature with 0.1 mM STP-alkyne 1 (5 μl of 10 mM stock in DMSO). Samples were conjugated by copper-mediated azide-alkyne cycloaddition (CuAAC) to either the light (1 mM STP-alkyne or fragment treated) or heavy (0.1 mM STP-alkyne or DMSO treated) TEV tags (10 μl of 5 mM stocks in DMSO, final concentration=100 μM) using tris(2-carboxyethyl)phosphine hydrochloride
(§3) R value calculation and processing. The ratios of light and heavy MS1 peaks for each unique peptide were quantified with a CIMAGE software using default parameters (3 MS1 acquisitions per peak and signal to noise threshold set to 2.5). For reactivity measurements by isoTOP-ABPP, the R value was calculated from the ratio of MS1 peak areas, comparing the 1 mM STP alkyne sample (light TEV tag) with the 0.1 mM STP alkyne sample (heavy TEV tag). For competitive isoTOP-ABPP, the R value was calculated from the ratio of MS1 peak areas, comparing the DMSO treated sample (heavy TEV tag) with the compound treated sample (light TEV tag). […] Ratios for unique peptide entries are calculated for each experiment; overlapping peptides with the same modified lysine (for example, different charge states, MudPIT chromatographic steps or tryptic termini) are grouped together and the median ratio is reported as the final ratio (R). The peptide ratios reported by CIMAGE were further filtered to ensure the removal or correction of low-quality ratios in each individual data set. The quality filters applied were the following: removal of half tryptic peptides; for ratios with high standard deviations from the median (90% of the median or above) the lowest ratio was taken instead of the median; removal of peptides with R=20 and only a single MS2 event triggered during the elution of the parent ion; manual annotation of all the peptides with ratios of 20, removing any peptides with low quality elution profiles that remained after the previous curation steps (only done for competitive isoTOP-ABPP).
(§4) Cross-data processing for fragment screening. For compound treated samples, biological replicates of the same condition were averaged, if the standard deviation was below 60% of the mean; otherwise, for lysines with at least one R value <4 for a particular compound, the lowest value of the ratio set was taken. For lysines, where all R values for a particular compound were ≥4, the average was reported. For peptides containing several possible modified lysines, the lysine with the highest number of quantification events was used for analysis and the remaining, redundant peptides were reported as alternative modification sites. Peptides included in the aggregate dataset (those used for further bioinformatics and statistical analyses) were required to have been quantified in 2 experiments for competitive isoTOP-ABPP. Lysines were categorized as liganded, if they had at least one ratio R≥4 (hit fragments). For liganded lysines with R=20 for all liganding events, lysines were required to have been quantified with R=20 in two separate experiments and were further required to have been quantified with R<20 in one additional experiment.

[2] = target: T2, HDHD3 Haloacid dehalogenase-like hydrolase domain-containing protein 3 (Homo sapiens, UniProt Q9BSH5); format: binding; set-up: key to isoTOP-ABPP reactivity ratio at lysine Q9BSH5_K15: R = MS1 peak area ratio, DMSO (heavy) / compound-treated (light); details: for isoTOP-ABPP ratio (R) at liganded lysine Q9BSH5_K15: sol, 231
T2 construct: isoTOP-ABPP experiments performed in cell lysates (in vitro); endogenous in cells; host or cells: soluble proteome of human cancer cell lines (MDA-MB-231; Ramos and Jurkat also prepared)
T2 sequence (Q9BSH5 1-251): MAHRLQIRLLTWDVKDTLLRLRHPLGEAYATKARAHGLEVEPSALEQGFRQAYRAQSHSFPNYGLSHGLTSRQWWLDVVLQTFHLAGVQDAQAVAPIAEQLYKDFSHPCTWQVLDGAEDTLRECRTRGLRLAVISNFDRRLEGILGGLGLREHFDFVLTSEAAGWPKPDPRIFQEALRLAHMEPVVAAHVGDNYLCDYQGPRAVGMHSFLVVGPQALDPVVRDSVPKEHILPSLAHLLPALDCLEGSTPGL
Description: as §1, §2, §3, §4

[3] = target: T3, ABCE1 ATP-binding cassette sub-family E member 1 (Homo sapiens, UniProt P61221); details: for isoTOP-ABPP ratio (R) at liganded lysine P61221_K191 / isoTOP-ABPP ratio (R) at liganded lysine P61221_K478: sol, 231
T3 construct: isoTOP-ABPP experiments performed in cell lysates (in vitro); endogenous in cells; host or cells: soluble proteome of human cancer cell lines (MDA-MB-231, Ramos, Jurkat)
Description: as §1, §2, §3, §4

Structure (SMILES)	isoTOP-ABPP ratio (R) at liganded lysine P52594_K134 [1]	isoTOP-ABPP ratio (R) at liganded lysine Q9BSH5_K15 ([2]; 50 uM, in vitro)	isoTOP-ABPP ratio (R) at liganded lysine P61221_K191 ([3]; 50 uM, in vitro)	isoTOP-ABPP ratio (R) at liganded lysine P61221_K478 ([3]; 50 uM, in vitro)	further results
O=C(CCc1coc2cc(F)ccc2c1=O)Oc1ccc([N+](=O)[O-])cc1[N+](=O)[O-] [fragment 36, 2,4-Dinitrophenyl 3-(7-fluoro-4-oxo-4H-chromen-3-yl)propanoate]	20.0	10.4	1.0	1.1	–
O=C(Oc1ccc([N+](=O)[O-])cc1[N+](=O)[O-])C(c1ccccc1)(c1ccccc1)c1ccccc1 [fragment 42, 2,4-Dinitrophenyl 2,2,2-triphenylacetate]	1.0	0.9	1.0	1.1	–
O=C(CCc1coc2cc(F)ccc2c1=O)Oc1c(F)c(F)c(F)c(F)c1F [fragment 26, Pentafluorophenyl 3-(7-fluoro-4-oxo-4H-chromen-3-yl)propanoate]	–	–	–	–	isoTOP-ABPP reactivity ratio at lysine P52594_K134 ([1]; 231 sol): 2.2; isoTOP-ABPP reactivity ratio at lysine Q9BSH5_K15 ([2]; 50 uM, 231 sol, in vitro): 3.4; isoTOP-ABPP reactivity ratio at lysine P61221_K191 ([3]; 50 uM, 231 sol, in vitro): 1.4; isoTOP-ABPP reactivity ratio at lysine P61221_K478 ([3]; 50 uM, 231 sol, in vitro): 1.3
O=C(Oc1ccc([N+](=O)[O-])cc1[N+](=O)[O-])c1ccccc1Nc1cccc(C(F)(F)F)c1 [fragment 40, 2,4-Dinitrophenyl 2-((3-(trifluoromethyl)phenyl)amino)benzoate]	0.8	0.9	0.9	1.0	–
O=C(Oc1ccc([N+](=O)[O-])cc1[N+](=O)[O-])C1CCN(C(=O)OCc2ccccc2)CC1 [fragment 34, 1-Benzyl 4-(2,4-dinitrophenyl) piperidine-1,4-dicarboxylate]	20.0	4.1	1.0	1.2	–
Cn1cc(CC(=O)Oc2c(F)c(F)c(F)c(F)c2F)c2ccccc21 [fragment 22, Pentafluorophenyl 2-(1-methyl-1H-indol-3-yl)acetate]	–	–	–	–	R value (DMSO/fragment) for probe 1 labeling ([1]; P52594_K134, 231 sol): 1.4; R value (DMSO/fragment) for probe 1 labeling ([2]; Q9BSH5_K15, 50 uM, 231 sol, in vitro): 1.1; R value (DMSO/fragment) for probe 1 labeling ([3]; P61221_K191, 50 uM, 231 sol, in vitro): 1.5; R value (DMSO/fragment) for probe 1 labeling ([3]; P61221_K478, 50 uM, 231 sol, in vitro): 1.6
O=C(Oc1c(F)c(F)c(C(F)(F)F)c(F)c1F)c1cc(C(F)(F)F)cc(C(F)(F)F)c1 [fragment 47, 2,3,5,6-Tetrafluoro-4-(trifluoromethyl)phenyl 3,5-bis(trifluoromethyl)benzoate]	–	–	–	–	isoTOP-ABPP ratio, lysine Q9BSH5_K15 ([2]; 50 uM_231_sol_in vitro): 0.9; isoTOP-ABPP ratio, lysine P61221_K191 ([3]; 50 uM_231_sol_in vitro): 1.7; isoTOP-ABPP ratio, lysine P61221_K478 ([3]; 50 uM_231_sol_in vitro): 1.4
O=C(CC12CC3CC(CC(C3)C1)C2)Oc1ccc([N+](=O)[O-])cc1[N+](=O)[O-] [fragment 38, 2,4-Dinitrophenyl 2-(adamantan-1-yl)acetate]	1.4	1.2	–	0.9	–
